{
  "source": "patent US5028603A",
  "about": "“Ester-substituted thienotriazolodiazepine compounds and pharmaceutical uses thereof” (Yoshitomi Pharmaceutical Industries, Ltd., priority 1987, dated 1991)",
  "test_system": "PAF-induced platelet aggregation",
  "assay": "Inhibitory effect on PAF-induced platelet aggregation in rabbits (in vitro test)",
  "type": "cell-based",
  "conditions": "Oryctolagus cuniculus, read-out: Inhibition of PAF-induced platelet aggregation IC50",
  "description": "Experiment 1: Inhibitory effect on platelet aggregation in rabbits (in vitro test)\nBlood samples to which was added 1/10 volume of 3.8% sodium citrate solution were collected from rabbits. Platelet rich plasma (PRP) was prepared by centrifuging the blood sample at 200×g for 10 minutes, and platelet poor plasma (PPP) was prepared by centrifuging the remaining blood sample at 1000× g for 10 minutes.\nAggregation ability was measured with a turbidimetric device (6-channel NKK Hematracer 1, model PAT-6A) according to the method of G.V.R. Born described in J. Physiology, vol. 168, p. 178 (1963). The aggregometer was adjusted in sensitivity to give light transmission values of 0 and 100% for PRP and PPP, respectively. With stirring at 1000 rpm, 0.3 μl of test compound solution or solvent was added to 0.3 ml of PRP. After the mixture was kept at 37° C. for 2 minutes, to the mixture was added 3 μl synthetic PAF at the final concentration of 1.8×10^-7 M and the light transmission was recorded for 5 minutes.\nThe inhibition percentage of test compounds on platelet aggregation was calculated from the following formula by measuring the maximal light transmission in the presence and absence of the test compounds. [formula]\nIC50 (μg/ml, concentration of 50% inhibition) was graphically determined.",
  "note": "Counter-ions that a name gives are not always drawn. Like-named read-outs stand apart in the source and are kept apart here.",
  "data": [
    {"smiles": "CCc1cc2c(s1)-n1c(C)nnc1CN=C2c1ccccc1Cl", "note": "[Etizolam, 6-(o-chlorophenyl)-8-ethyl-1-methyl-4H-s-triazolo [3,4c]thieno[2,3-e][1,4]diazepine, reference compound]", "values": [
      {"measurement": "IC50", "setting": "Platelet", "result": 1.3, "unit": "µg/mL"}
    ]},
    {"smiles": "Cc1nnc2n1-c1sc(C(C)OC(=O)C(C)c3ccc(CC(C)C)cc3)cc1C(c1ccccc1Cl)=NC2", "note": "(centres unmarked) [Example 2, 2-(1-(2-(4-iso-butylphenyl)propionyl)oxyethyl)-4-(2-chlorophenyl)-9-methyl-6H-thieno[3,2-f][1,2,4]triazolo[4,3-a][1,4]diazepine]", "values": [
      {"measurement": "IC50", "setting": "Platelet", "result": "0.01 to 0.03", "unit": "µg/mL"}
    ]},
    {"smiles": "Cc1ccccc1C1=NCc2nnc(C)n2-c2sc(C(C)OC(=O)C(C)c3ccc(CC(C)C)cc3)cc21", "note": "(centres unmarked) [Example 4, 2-(1-(2-(4-isobutylphenyl)propionyl)oxyethyl)-4-(2-methylphenyl)-9-methyl-6H-thieno[3,2-f][1,2,4]triazolo[4,3-a][1,4]diazepine]", "values": [
      {"measurement": "IC50", "setting": "rabbit platelet rich plasma, 37° C., PAF final concentration 1.8×10^-7 M", "result": "0.03 to 0.1", "unit": "µg/mL"}
    ]},
    {"smiles": "Cc1nnc2n1-c1sc(C(C)OC(=O)c3ccccc3)cc1C(c1ccccc1Cl)=NC2", "note": "(centres unmarked) [Example 13, 2-(1-benzoyloxyethyl)-4-(2-chlorophenyl)-9-methyl-6H-thieno[3,2-f][1,2,4]triazolo[4,3-a][1,4]diazepine.hydrochloride]", "values": [
      {"measurement": "IC50", "setting": "Platelet", "result": "0.1 to 0.3", "unit": "µg/mL"}
    ]},
    {"smiles": "Cc1nnc2n1-c1sc(C(C)OC(=O)C(C)(C)C)cc1C(c1ccccc1Cl)=NC2", "note": "(centres unmarked) [Example 14, 4-(2-chlorophenyl)-9-methyl-2(1-pivaloyloxyethyl)-6H-thieno[3,2-f][1,2,4]triazolo[4,3-a][1,4]diazepine]", "values": [
      {"measurement": "IC50", "setting": "Platelet", "result": 0.2, "unit": "µg/mL"}
    ]}
  ]
}
